Laboratory results as given in PMC4924314, “Vertebrate TFPI-2 C-terminal peptides exert therapeutic applications against Gram-negative infections” (BMC Microbiology, 2016).

Tests used:
E. coli ATCC 25922 = test: Viable count analysis in mouse plasma; format: cell-based, Escherichia coli; conditions: E. coli ATCC 25922, viable count, mouse plasma (Figure S2)
Description: E. coli were grown to mid-exponential phase in Todd-Hewitt (TH). Bacteria were washed and diluted in 10 mM Tris, pH 7.4 either alone or with 20 % human or mouse (BALB/c) citrate-plasma. Bacterial (2 × 10^6 cfu/ml) were incubated in 50 μl, at 37 °C for 1 h with the C-terminal TFPI-2 derived peptides at the indicated concentrations. Serial dilutions of the incubation mixture were plated on TH agar, followed by incubation at 37 °C overnight and cfu determination. Additional file 1: Figure S1. Phylogenetic tree analysis of full-length and reminder protein except C-terminal TFPI-2 from vertebrates. Phylogenetic tree from 72 vertebrate TFPI-2 species was constructed using Neighbour-Joining tree with 1000 bootstrap replications on MEGA6. (PDF 54 kb) Additional file 2: Figure S2. Activities of TFPI-2 C-terminal derived peptides in mouse plasma. (Left) The bactericidal activity of mouse VKG24 peptide was assessed in physiological buffer conditions using viable count analysis. E. coli ATCC 25922 were grown to mid-logarithmic phase and incubated with varying concentrations of peptide. The antimicrobial activity was determined by plating serial dilutions of bacteria on TH agar plates and number of cfu was counted after overnight incubation. (Right) The activated partial thromboplastin time (aPTT) was determined by addition of buffer or 50 μM of VKG24 peptide to mouse plasma. […]

[1] = tested on: intrinsic pathway of coagulation; test: Activated partial thromboplastin time (aPTT) in mouse plasma; format: biochemical; conditions: peptide 50 μM, n = 3 (Figure S2)
Description: All clotting times were analyzed using a coagulometer (Amelung, Lemgo, Germany). For determination of activated partial thromboplastin time (aPTT), 100 μl of a kaolin-containing solution (Technoclone) was added to the 100 μl of fresh citrate plasma or citrate plasma peptide mix and incubated at 37 °C for 200 s before clot formation was initiated by adding 100 μl of 30 mM fresh CaCl2 solution. For detection of prothrombin time (PT, thromboplastin reagent (Trinity Biotech)) 100 μl of fresh citrate plasma were incubated 60 s at 37 °C before clot formation was initiated by adding 100 μl of clotting reagent. Additional file 1: Figure S1. Phylogenetic tree analysis of full-length and reminder protein except C-terminal TFPI-2 from vertebrates. Phylogenetic tree from 72 vertebrate TFPI-2 species was constructed using Neighbour-Joining tree with 1000 bootstrap replications on MEGA6. (PDF 54 kb) Additional file 2: Figure S2. […] (Left) The bactericidal activity of mouse VKG24 peptide was assessed in physiological buffer conditions using viable count analysis. […] The antimicrobial activity was determined by plating serial dilutions of bacteria on TH agar plates and number of cfu was counted after overnight incubation. (Right) The activated partial thromboplastin time (aPTT) was determined by addition of buffer or 50 μM of VKG24 peptide to mouse plasma. […]

[2] = tested on: E. coli LPS-induced septic shock in Balb/c mice; test: LPS-induced septic shock mouse model (survival, weight); format: in vivo; conditions: 10 mg/kg E. coli LPS i.p.
Description: (§1) Fig. 6 Treatment of LPS-induced septic shock mice with a mouse TFPI-2 derived peptide. Septic shock in Balb/c mice was induced by i.p. injection of 10 mg/kg E. coli LPS. […] Statistical comparisons of survival curves were performed using the Mantel-Cox’s test. ***P ≤ 0.0003. b Weight was determined daily. c Clotting times of aPTT and PT was measured in citrate plasma 24 h after LPS injection (n = 8). d The indicated cytokines were analyzed in plasma 24 h after LPS injection (n = 8). Statistical analysis for C-D, one-way ANOVA with Tukey’s multiple comparisons post-test was used. **P ≤ 0.003, ****P ≤ 0.0001
(§2) Male/female balb/c mice (8 weeks, 21 ± 5 g) were injected intraperitoneally (i.p.) with 10 mg E. coli 0111:B4 LPS (Sigma) per kg of body weight. Thirty minutes after LPS injection, 0.5 mg VKG24 (25 mg/kg) or PBS buffer alone (control) were injected i.p. into the mice. Status and weight were monitored daily for seven days. Mice where immobilization and/or shaking was observed were euthanized by an overdose of isoflurane (Abbott) and counted as non-survivors. For determination of cytokine levels in mouse plasma, animals were sacrificed 24 h after LPS injection. The blood was collected immediately by cardiac puncture into citrate tubes.

[3] = tested on: intrinsic and extrinsic coagulation pathways; test: Clotting times (aPTT, PT) in citrate plasma of LPS-injected mice; format: in vivo, mouse; conditions: peptide ~25 mg/kg i.p.
Description: Fig. 6 Treatment of LPS-induced septic shock mice with a mouse TFPI-2 derived peptide. […] Statistical analysis for C-D, one-way ANOVA with Tukey’s multiple comparisons post-test was used. **P ≤ 0.003, ****P ≤ 0.0001
as §2
All clotting times were analyzed using a coagulometer (Amelung, Lemgo, Germany). For determination of activated partial thromboplastin time (aPTT), 100 μl of a kaolin-containing solution (Technoclone) was added to the 100 μl of fresh citrate plasma or citrate plasma peptide mix and incubated at 37 °C for 200 s before clot formation was initiated by adding 100 μl of 30 mM fresh CaCl2 solution. For detection of prothrombin time (PT, thromboplastin reagent (Trinity Biotech)) 100 μl of fresh citrate plasma were incubated 60 s at 37 °C before clot formation was initiated by adding 100 μl of clotting reagent.

[4] = tested on: IL-6, MCP-1, IFN-γ, IL-10; test: Cytokine assay in plasma of LPS-injected mice; format: in vivo, mouse; conditions: 24 h after LPS injection, peptide ~25 mg/kg i.p., n = 8
Description: as §1, §2
Cytokines IL-6, IL-10, MCP-1, INF-γ and TNF-α were measured in plasma from mice infected by E. coli LPS (with or without peptide treatment) using the Cytometric bead array; mouse inflammation kit (Becton Dickinson AB) according to the manufacturer’s instructions. All plasma samples were stored at −80 °C before the analysis.

[5] = citrate plasma 24 h after LPS injection, n = 8

VKGWKKPKRWKIGDFLPRFWKHLS [VKG24, mouse TFPI-2 C-terminal derived peptide (O35536)]
antimicrobial activity in mouse plasma (E. coli ATCC 25922): potent | anti-coagulant activity in mouse plasma (aPTT) [1]: potent | survival rate ([2]; peptide 0.5 mg/mouse (~25 mg/kg) i.p. 30 min after LPS, monitored 7 days): dramatic improvement | body weight ([2]; peptide ~25 mg/kg i.p. 30 min after LPS, weight determined daily): started regaining their weight from day three | coagulation PT time [3, 5]: significantly decreased | coagulation aPTT time [3, 5]: significantly decreased | coagulation aPTT and PT levels in survivors ([3]; survivors): completely normalized | IFN-γ in plasma [4]: significant reduction | IL-6 in plasma [4]: significant reduction | IL-10 in plasma [4]: significant reduction | MCP-1 in plasma [4]: significant reduction
